Here are results for one compound from US6403627B1, “Spin trapping pharmaceutical compositions and methods for use thereof” (Oklahoma Medical Research Foundation, priority 1991, dated 2002).

Data set [1] concerns oxidation of low density lipoprotein in plasma. The experiment in a line: Oxidation of lipid in plasma/LDL samples measured as thiobarbituric acid reactive substance (TBAR). The data set is classed as biochemical. The settings on record: for % inhibition / Test (TBAR): 0.1 mM PBN, 4° C. for seven weeks; for % inhibition: actual inhibition greater than measured (assay interference by PBN). How it is done:
Diabetic atherosclerosis involves the abnormal and excessive glycation of protein in the vascular wall. As discussed above for diabetic neuropathy, this involves oxygen radical production and consequent further damage to cytosolic proteins. Spin-trapping compounds will prevent this abnormal processing of cellular protein and other cellular constituents. […] Plasma samples were tested for oxidation of lipid measured using thiobarbioturic acid reactive substance (TBAR, nM) and % inhibition of oxidation calculated.

The next data set is described as follows: Toxicity tests (LD50). The data set is classed as in vivo. How it is done:
Exemplary dosages of the parent phenyl t-butyl nitrone administered intravenously range from 0.1 to 10 mg/kg of body weight in animals. […] It is possible to extrapolate from comparative tests using other spin trapping compounds what the effective dosage for these compounds will be.

The subject of data set [2] is protein oxidation and enzyme activity in aged cells/brain. The experiment in a line: Age-related protein oxidation and enzyme activity after daily administration. The class given is in vivo. To be noted: aging; daily administration for fourteen days. The text has this: The consequence of this increased level of protein oxidation is an abnormally low level of critical enzymes in the affected cells. While not all cells have been evaluated, it appears from the in vivo data presented in U.S. Ser. No. 07/589,177abandoned on Mar. 5, 1993, and U.S. Ser. No. 07/422,651, now U.S. Pat. No. 5,025,032, and reports of in vitro studies, that most, if not all, cells in the body will undergo abnormally high levels of protein oxidation. Decreases in antioxidant systems and abnormally low levels of mitochondrial function have been described. The protein oxidation is thought to arise from oxygen free radicals, largely generated via a metal catalyzed reaction within the cell. […] Organs for transplantation are obtained from donors. The success of the procedure is determined in part by the age (oxidation) related reduction in organ viability, the amount of time the organ is in preservation solution, and the status of the recipient.

For data set [3] the test system is unchanged. The settings on record: as early as seven days following initiation of daily treatment; cited from earlier work.
Data set [4] concerns free radicals produced by adriamycin in heart, brain and other organs. To be noted: brain and other organs of research animals; cited from earlier work.

Take `CC(C)(C)[N+]([O-])=Cc1ccccc1` [PBN, phenyl N-tert-butylnitrone]: the “% inhibition” value in data set [1] (NP132 plasma) is listed as 18.2%; in data set [1] (NP133 LDL), 48.1%; in data set [1] (NP134 plasma) it was 22.2%; in data set [1] (NP135 LDL), 66.7%; in data set [1] (NP135 plasma), 21.9%. Besides, the “Test (TBAR)” value in data set [1] (NP132 plasma, control + PBS 0.55) turned out to be 0.45 nM/ml; in data set [1] (NP133 LDL, control + PBS 0.54) it was 0.28 nM/ml; in data set [1] (NP134 plasma, control + PBS 0.18), 0.14 nM/ml; in data set [1] (NP135 LDL, control + PBS 0.33), 0.11 nM/ml; in data set [1] (NP135 plasma, control + PBS 0.32) it was 0.25 nM/ml. In addition, the “oxidation of low density lipoprotein in plasma” value in data set [1] (in vitro studies) is “inhibits or reduces oxidation of low density lipoprotein in plasma”. For the same compound, the LD50 entry in the data set “Toxicity tests (LD50)” is “not possible to determine an LD50”. In the data set “Toxicity tests (LD50)”, the toxicity entry was “completely innocuous”. In addition, in data set [2], the “abnormally low level of enzyme activity” value is “restored to normal”. Further, the “level of protein oxidation” value in data set [2] was “decreased”. The “enzymatic status of the aged brain” value in data set [3] was “restoring enzymatic levels to near those of the young adult”. In addition, the “trapping of free radicals produced by adriamycin” value in data set [4] is on record as “trap the free radicals produced by adriamycin”.
